The text below walks through data of patent US20250197457A1, “CHIMERIC IGG-FC-BINDING LIGAND POLYPEPTIDE AND USES THEREOF FOR IGG AFFINITY PURIFICATION” (Roche Diagnostics Operations, Inc., priority 2021, published 2025).

The subject of experiment [1] is human IgG. The note with it: cited from earlier work.
Experiment [2] concerns the target T1, rabbit IgG (Oryctolagus cuniculus, UniProt P01870).
T1 construct: purchased Sigma-Aldrich
The note with it: Gong et al.; cited from earlier work.

Experiment [3] has as its system IgG-Fc-region. To be noted: DeLano et al. 2000; cited from earlier work.
The test system of experiment [4] is human IgG. As to the kind of experiment: SPR interaction assay (Biacore), scaffolds immobilised, human IgG as analyte. It counts as binding. The note with it: hIgG at 25° C. As to the method: Surface plasmon resonance (SPR) The affinities and binding kinetics of the generated TtSlyD-Fc-III-4C mutants were evaluated by SPR using a Biacore biosensensor system. The Biacore system enables a real-time monitoring of intermolecular interactions between the ligand, immobilised on a sensor chip gold-surface, and the analyte which is free in solution and passes over the ligand (Healthcare, G., Biacore™ Assay Handbook 29-0194-00 Edition AA). Interaction of the binding partners leads to SPR signals (responses), measured in resonance units (RU) and illustrated as plot against time (sensorgram).
Regarding the procedure, in brief, the analyte is injected on the chip, interacting with the immobilised ligand. The change in concentration of molecules at the chip surface leads to a change in the refractive index, monitored as response unit (RU). Dissociation of analyte is triggered by continues buffer flow, followed by complete removal (chip regeneration) and starting of a new analysis cycle. […]
Interaction kinetics are examined by monitoring different analyte concentrations over time. Kinetic parameters, such as association (ka) and dissociation rate constants (kd) are evaluated in relation to a mathematical model. […]
A general note: SPR reads the build-up and loss of mass on a sensor chip optically.

T1 sequence (P01870 whole entry): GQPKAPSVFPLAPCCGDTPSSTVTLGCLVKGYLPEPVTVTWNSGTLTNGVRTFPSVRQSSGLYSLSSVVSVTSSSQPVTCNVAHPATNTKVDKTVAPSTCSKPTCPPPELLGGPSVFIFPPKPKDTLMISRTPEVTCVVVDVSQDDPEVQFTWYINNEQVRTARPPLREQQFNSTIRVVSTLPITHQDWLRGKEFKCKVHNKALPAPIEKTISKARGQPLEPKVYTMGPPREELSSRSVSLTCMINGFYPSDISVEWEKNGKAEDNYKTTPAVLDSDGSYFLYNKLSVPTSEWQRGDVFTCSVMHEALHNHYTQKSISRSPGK

With CDCAWHLGELVWCTC [Fc-III-4C], the “higher binding affinity to human IgG compared to the original Fc-III” value in experiment [1] (SPR) is reported as 30 fold. For the same molecule, the Kd in experiment [1] (human IgG, Gong et al. 2016) was 2.45 nM; in experiment [2], 5.67 nM.

On to DCAWHLGELVWCT [Fc-III], for which the “binding affinity relative to Protein A” value in experiment [3] was “only about two fold weaker”.

B1: TtSlyD-Fc-III-2C Hit No. 4: SlyD chimera whose IF domain is replaced by Fc-III-XC peptide EDCAWHLGELVWCTE, SEQ ID NO: 16 (protein)
chain: MKVGQDKVVTIRYTLQVEGEVLDQGELSYLHGHRLIPGLEEALEGREEGEAFQAHVPAEKAYEDCAWHLGELVWCTEGKDLDFQVEVVKVREATPEELLHGHA
modifications: left off: small tags and cut ends
For the molecule B1, in experiment [4], the “binding affinity KA” value amounted to 1.09e+08 M⁻¹ and the t/2 diss amounted to 36 min.

As a reminder, the Kd is the equilibrium constant for the complex coming apart.
